# Data from PubChem BioAssay AID1963848 (Molecular Pharmacology Branch, DTP, NCI, 2024).
# System: 379773-124-R-J2-PDC spheroid viability
# Assay: Anticancer human tumor 379773-124-R-J2-PDC patient-derived endometrial carcinoma cell line growth inhibition [POLQ]
# Conditions: spheroids with HUVEC and MSC; for IC50: curve of first compound; for viability, T/C: stronger effect = lower value
# Summary of the method: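 Growth inhibition in 3D: complex spheroids (tumor PDC, HUVEC, MSC) treated with POLQ inhibitor combinations; where Cmax unknown, highest tested concentration 10 microM, except SN-38 at 1 microM.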
# [1] = second compound 0.0316 µM, first compound 0.0316 µM
# [2] = second compound 0.0316 µM, first compound 0.1 µM
# [3] = second compound 0.0316 µM, first compound 0.316 µM
# [4] = second compound 0.0316 µM, first compound 1 µM
# [5] = second compound 0.0316 µM, first compound 3.16 µM
# [6] = second compound 0.0316 µM, first compound 10 µM
# [7] = second compound 0.1 µM, first compound 0.0316 µM
# [8] = second compound 0.1 µM, first compound 0.1 µM
# [9] = second compound 0.1 µM, first compound 0.316 µM
# [10] = second compound 0.1 µM, first compound 1 µM
# [11] = second compound 0.1 µM, first compound 3.16 µM
# [12] = second compound 0.1 µM, first compound 10 µM
# [13] = second compound 0.316 µM, first compound 0.0316 µM
# [14] = second compound 0.316 µM, first compound 0.1 µM
# [15] = second compound 0.316 µM, first compound 0.316 µM
# [16] = second compound 0.316 µM, first compound 1 µM
# [17] = second compound 0.316 µM, first compound 3.16 µM
# [18] = second compound 0.316 µM, first compound 10 µM
# [19] = second compound 1 µM, first compound 0.0316 µM
# [20] = second compound 1 µM, first compound 0.1 µM
# [21] = second compound 1 µM, first compound 0.316 µM
# [22] = second compound 1 µM, first compound 1 µM
# [23] = second compound 1 µM, first compound 3.16 µM
# [24] = second compound 1 µM, first compound 10 µM
# [25] = second compound 3.16 µM, first compound 0.0316 µM
# [26] = second compound 3.16 µM, first compound 0.1 µM
# [27] = second compound 3.16 µM, first compound 0.316 µM
# [28] = second compound 3.16 µM, first compound 1 µM
# [29] = second compound 3.16 µM, first compound 3.16 µM
# [30] = second compound 3.16 µM, first compound 10 µM
# [31] = second compound 10 µM, first compound 0.0316 µM
# [32] = second compound 10 µM, first compound 0.1 µM
# [33] = second compound 10 µM, first compound 0.316 µM
# [34] = second compound 10 µM, first compound 1 µM
# [35] = second compound 10 µM, first compound 3.16 µM
# [36] = second compound 10 µM, first compound 10 µM
# 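Further: spheroids exposed to drugs for seven days before readout.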
# 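Wherever viability, T/C is given: percent viability relative to DMSO vehicle control taken as 100%.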
structure (smiles),measurement,setting,value
C=CC(=O)N1CCN(c2nc(=O)n(-c3c(C)ccnc3C(C)C)c3nc(-c4c(O)cccc4F)c(F)cc23)C(C)C1 (stereo not drawn) + Cc1cccc(N(C)C(=O)C2C(O)CCN2c2nc(C)cc(C(F)(F)F)c2C#N)c1,IC50,second compound 0.0316 µM,> 10 µM
same,IC50,second compound 0.1 µM,> 10 µM
same,IC50,second compound 0.316 µM,> 10 µM
same,IC50,second compound 1 µM,> 10 µM
same,IC50,second compound 3.16 µM,> 10 µM
same,IC50,second compound 10 µM,> 10 µM
same,"viability, T/C",[1],88.5%
same,"viability, T/C",[2],89.8%
same,"viability, T/C",[3],82%
same,"viability, T/C",[4],105%
same,"viability, T/C",[5],77.1%
same,"viability, T/C",[6],76.2%
same,"viability, T/C",[7],84.9%
same,"viability, T/C",[8],77.8%
same,"viability, T/C",[9],87.7%
same,"viability, T/C",[10],74.4%
same,"viability, T/C",[11],80.4%
same,"viability, T/C",[12],86.1%
same,"viability, T/C",[13],91%
same,"viability, T/C",[14],70.4%
same,"viability, T/C",[15],82.8%
same,"viability, T/C",[16],85%
same,"viability, T/C",[17],95.8%
same,"viability, T/C",[18],75.7%
same,"viability, T/C",[19],80%
same,"viability, T/C",[20],81.1%
same,"viability, T/C",[21],95.2%
same,"viability, T/C",[22],75.2%
same,"viability, T/C",[23],87.4%
same,"viability, T/C",[24],64.2%
same,"viability, T/C",[25],84.4%
same,"viability, T/C",[26],90.3%
same,"viability, T/C",[27],87.3%
same,"viability, T/C",[28],86.3%
same,"viability, T/C",[29],86.6%
same,"viability, T/C",[30],78.9%
same,"viability, T/C",[31],78%
same,"viability, T/C",[32],82.1%
same,"viability, T/C",[33],91.8%
same,"viability, T/C",[34],73.5%
same,"viability, T/C",[35],82.8%
same,"viability, T/C",[36],84.3%
CC(C)n1c(=O)n(C)c2cnc3cc(F)c(-c4ccc(OCCCN5CCCCC5)nc4)cc3c21 + Cc1cccc(N(C)C(=O)C2C(O)CCN2c2nc(C)cc(C(F)(F)F)c2C#N)c1,IC50,second compound 0.0316 µM,> 10 µM
same,IC50,second compound 0.1 µM,> 10 µM
same,IC50,second compound 0.316 µM,> 10 µM
same,IC50,second compound 1 µM,> 10 µM
same,IC50,second compound 3.16 µM,> 10 µM
same,IC50,second compound 10 µM,> 10 µM
same,"viability, T/C",[1],89.1%
same,"viability, T/C",[2],76.9%
same,"viability, T/C",[3],83.4%
same,"viability, T/C",[4],77.9%
same,"viability, T/C",[5],83%
same,"viability, T/C",[6],59.9%
same,"viability, T/C",[7],88.8%
same,"viability, T/C",[8],77.1%
same,"viability, T/C",[9],77.2%
same,"viability, T/C",[10],79.9%
same,"viability, T/C",[11],98.7%
same,"viability, T/C",[12],65.8%
same,"viability, T/C",[13],80.3%
same,"viability, T/C",[14],89.8%
same,"viability, T/C",[15],75.9%
same,"viability, T/C",[16],73.6%
same,"viability, T/C",[17],79.7%
same,"viability, T/C",[18],65.1%
same,"viability, T/C",[19],84%
same,"viability, T/C",[20],75.1%
same,"viability, T/C",[21],80.1%
same,"viability, T/C",[22],73.1%
same,"viability, T/C",[23],79.1%
same,"viability, T/C",[24],69.8%
same,"viability, T/C",[25],73.7%
same,"viability, T/C",[26],75.3%
same,"viability, T/C",[27],75.3%
same,"viability, T/C",[28],64.4%
same,"viability, T/C",[29],72%
same,"viability, T/C",[30],72.1%
same,"viability, T/C",[31],78.7%
same,"viability, T/C",[32],79.5%
same,"viability, T/C",[33],89.2%
same,"viability, T/C",[34],73.9%
same,"viability, T/C",[35],70.3%
same,"viability, T/C",[36],56.1%
CCc1cc2c(N3CCc4c(cc(Cn5ccnc5)cc4-c4cn(C)nc4C(F)(F)F)C3=O)ccnc2c(OC)n1 + Cc1cccc(N(C)C(=O)C2C(O)CCN2c2nc(C)cc(C(F)(F)F)c2C#N)c1,IC50,second compound 0.0316 µM,> 10 µM
same,IC50,second compound 0.1 µM,> 10 µM
same,IC50,second compound 0.316 µM,> 10 µM
same,IC50,second compound 1 µM,> 10 µM
same,IC50,second compound 3.16 µM,> 10 µM
same,IC50,second compound 10 µM,3.73 µM
same,"viability, T/C",[1],76.1%
same,"viability, T/C",[2],68.8%
same,"viability, T/C",[3],73%
same,"viability, T/C",[4],63.2%
same,"viability, T/C",[5],59.1%
same,"viability, T/C",[6],54.5%
same,"viability, T/C",[7],81.9%
same,"viability, T/C",[8],71.1%
same,"viability, T/C",[9],64.3%
same,"viability, T/C",[10],69.6%
same,"viability, T/C",[11],55.2%
same,"viability, T/C",[12],50%
same,"viability, T/C",[13],71.9%
same,"viability, T/C",[14],85.3%
same,"viability, T/C",[15],70.2%
same,"viability, T/C",[16],64.8%
same,"viability, T/C",[17],55.5%
same,"viability, T/C",[18],53%
same,"viability, T/C",[19],83.6%
same,"viability, T/C",[20],68.9%
same,"viability, T/C",[21],65%
same,"viability, T/C",[22],63.7%
same,"viability, T/C",[23],55.9%
same,"viability, T/C",[24],50.2%
same,"viability, T/C",[25],73.5%
same,"viability, T/C",[26],80.8%
same,"viability, T/C",[27],60.9%
same,"viability, T/C",[28],65.2%
same,"viability, T/C",[29],58.8%
same,"viability, T/C",[30],55.7%
same,"viability, T/C",[31],69.6%
same,"viability, T/C",[32],68.2%
same,"viability, T/C",[33],62%
same,"viability, T/C",[34],57.9%
same,"viability, T/C",[35],50.1%
same,"viability, T/C",[36],44.2%
COc1cc2cc(C(=O)CCC(=O)O)sc2cc1OC + Cc1cccc(N(C)C(=O)C2C(O)CCN2c2nc(C)cc(C(F)(F)F)c2C#N)c1,IC50,second compound 0.0316 µM,> 10 µM
same,IC50,second compound 0.1 µM,> 10 µM
same,IC50,second compound 0.316 µM,> 10 µM
same,IC50,second compound 1 µM,> 10 µM
same,IC50,second compound 3.16 µM,> 10 µM
same,IC50,second compound 10 µM,> 10 µM
same,"viability, T/C",[1],90.8%
same,"viability, T/C",[2],100%
same,"viability, T/C",[3],86.1%
same,"viability, T/C",[4],89.3%
same,"viability, T/C",[5],89.2%
same,"viability, T/C",[6],102%
same,"viability, T/C",[7],96.3%
same,"viability, T/C",[8],89.2%
same,"viability, T/C",[9],85.3%
same,"viability, T/C",[10],96.9%
same,"viability, T/C",[11],105%
same,"viability, T/C",[12],91.2%
same,"viability, T/C",[13],102%
same,"viability, T/C",[14],88.5%
same,"viability, T/C",[15],85.2%
same,"viability, T/C",[16],90.1%
same,"viability, T/C",[17],85.8%
same,"viability, T/C",[18],89%
same,"viability, T/C",[19],88.5%
same,"viability, T/C",[20],103%
same,"viability, T/C",[21],96.3%
same,"viability, T/C",[22],100%
same,"viability, T/C",[23],102%
same,"viability, T/C",[24],88.1%
same,"viability, T/C",[25],101%
same,"viability, T/C",[26],83.7%
same,"viability, T/C",[27],103%
same,"viability, T/C",[28],100%
same,"viability, T/C",[29],87.7%
same,"viability, T/C",[30],95.1%
same,"viability, T/C",[31],94.5%
same,"viability, T/C",[32],84.6%
same,"viability, T/C",[33],89.7%
same,"viability, T/C",[34],89.9%
same,"viability, T/C",[35],103%
same,"viability, T/C",[36],85.3%
